Reference: US20040138145A1, “Application of intestinal biliary acid reuptake inhibitors for the prevention and treatment of alzheimer's disease” (Aventis Pharma S.A., priority 2002, published 2004)

What was measured:
plasma cholesterol = assay: Plasma cholesterol level in Tg53 transgenic mice after treatment in feed; type: in vivo, mouse
Experimental: The compound A in powdered form was mixed at the dose of 0.01% (weight/weight) with standard feed in powdered form.
Transgenic mice Tg53 (overexpressing the human APP transgene carrying the “Swedish” and “London” mutations, (2002 Wirths, et al. (2002). Brain Pathol. 12, 275-286), 8-10 week old females, were treated for 3 weeks. The mice were housed in an individual cage with drink being available ad libitum. Every day, 6 grams of powdered food (supplemented or otherwise with compound A) were distributed in each cage. Two groups of 11 to 12 animals (control regimen or regimen supplemented with compound A) were used. At the end of the treatment, a blood sample was collected and the plasma cholesterol level was determined using an automated device for biological analysis.

Aβ peptide = assay: Cerebral Aβ peptide levels (soluble and total brain fractions) in Tg53 transgenic mice, immunoelectrochemoluminescence assay; type: in vivo, mouse; conditions: for levels of total Aβ / levels of total Aβ reduced compared with control group: Test 3; for levels of total Aβ: control 108.1±8.5

CCCC[C@]1(CC)CS(=O)(=O)c2ccc(N(C)C)cc2[C@@H](c2cccc(NC(=O)CCCCNC[C@H](O)[C@@H](O)[C@H](O)[C@H](O)CO)c2)[C@H]1O [compound A]
plasma cholesterol level (plasma cholesterol; Test 1, Tg53 females 8-10 weeks old, 0.01% (w/w) in feed, 3 weeks, n=11, control 0.72±0.023): 0.62 ± 0.030 g/L | plasma cholesterol level reduced compared to control regimen group (plasma cholesterol; Test 1, Tg53 females 8-10 weeks old, 0.01% (w/w) in feed, 3 weeks, p=0.0154): 14% | plasma cholesterol level (plasma cholesterol; Test 2, female transgenic mice 15.5 weeks old at end of treatment, 0.01% in feed, n=8, control 0.85±0.03): 0.70 ± 0.03 g/L | plasma cholesterol level reduced compared with control regime group (plasma cholesterol; Test 2, female transgenic mice 15.5 weeks old at end of treatment, 0.01% in feed, p=0.0037): 18% | decrease in the cerebral level of soluble Aβ peptide compared to control regimen group (Aβ peptide; Test 1, Tg53 females 8-10 weeks old, 0.01% (w/w) in feed, 3 weeks, p=0.0103): 18% | cerebral levels of total peptide Aβ (Aβ peptide; Test 2, female transgenic mice 15.5 weeks old at end of treatment, 0.01% in feed, n=8, control 364.2±40.9): 196.3±17.8 ng/g of tissue | reduction in the cerebral level of soluble Aβ peptide compared with control regime group (Aβ peptide; Test 2, female transgenic mice 15.5 weeks old at end of treatment, 0.01% in feed, p=0.0001): 40% | cerebral levels of total peptide Aβ reduced compared with control regime group (Aβ peptide; Test 2, female transgenic mice 15.5 weeks old at end of treatment, 0.01% in feed, p=0.0017): 46% | levels of total Aβ (Aβ peptide; 0.0001% in feed, n=8): 85.4±4.1 ng/g of tissue | levels of total Aβ reduced compared with control group (Aβ peptide; 0.0001% in feed, p=0.04): 21% | levels of total Aβ (Aβ peptide; 0.001% in feed, n=10): 86.5±5.9 ng/g of tissue | levels of total Aβ reduced compared with control group (Aβ peptide; 0.001% in feed, p=0.050): 20% | levels of total Aβ (Aβ peptide; 0.01% in feed, n=10): 90.5±6.9 ng/g of tissue | levels of total Aβ reduced compared with control group (Aβ peptide; 0.01% in feed, p=0.123, ns): 16%
